Assay results from patent US6452050B1, “Synthesis and use of α-ketoamide derivatives and arrays” (ArQule, Inc., priority 1997, dated 2002).

Biological target: T1, Cathepsin B (EC 3.4.22.1, from human liver) (Homo sapiens, UniProt P07858)
T1 construct: Cathepsin B (EC 3.4.22.1, from human liver) was purchased from Sigma Chemical Company; purchased Sigma Chemical Company (St. Louis, Mo.); host or cells: human liver
Assay: High-throughput fluorometric cathepsin B assay (Z-F-R-AMC substrate)
Format: biochemical
Details: cruzain versus cathepsin B IC50
Method: A fluorometric high throughput cathepsin B assay for detecting inhibitory activity was developed in 96-well microtiter plate format. Benzyloxy-Phe-Arg-AMC (Z-F-R-AMC; Molecular Probes, Inc., Eugene, Oreg.) was the substrate used in the assay (Km=150 μM). Cathepsin B (EC 3.4.22.1, from human liver) was purchased from Sigma Chemical Company (St. Louis, Mo.) in a stock solution containing 25 μg of the protein in 25 μl buffer (i.e., 20 mM sodium acetate, pH 5.0, and 1 mM EDTA).
The bioassay of the compounds was performed on a Sagian/Beckman Integrated robotic system (Beckman, Fullerton, Calif.). Inhibition of enzyme activity was measured via fluorescent detection. Fluorescence readings were taken at an excitation wavelength of […] (λmax=350 nm) and an emission wavelength of 430 nm (λmax=430 nm) on a BMG FluoStar (BMG, Durham, N.C.). […]
The reaction was initiated by the addition of the cathepsin B (0.46 ng/ml) in the assay buffer containing dithiothreitol (giving a final concentration of 1.5 mM). […] The activity was obtained by observing the end point absorbance reading after quenching. The percentage of inhibition was calculated by dividing the absorbance measured in the presence of inhibitor plus enzyme (inhibited signal) by the absorbance measured in the presence of enzyme alone (full signal) minus the absorbance obtained in the absence of both inhibitors and the enzyme (background). […]

For `O=C(Nc1ccc(CNC(=O)C(=O)c2ccc(-c3ccccc3)cc2)cc1)Nc1ccc(-c2ccccc2)cc1` [Compound 4], the “selectivity over cathepsin B” value was “greater than 20 fold”.
